For one data set, the system named is Ovulationshemmung. As to the kind of experiment: optimal dose for reliable ovulation inhibition. The settings on record: mikronisiert, mittlere Teilchengröße ca. 3 µm. Format: in vivo. Here is the method:
Als schwerlöslicher Wirkstoff wird Dienogest üblicherweise mikronisiert mit einer mittleren Teilchengröße von ca. 3 µm eingesetzt. Mit dieser Partikelgrößenverteilung wurde als optimale Dosis für eine sichere Ovulationshemmung 2 mg Dienogest ermittelt.

For data set [1] the following is noted: Einzeldosis; mittlere Partikelgröße 3,7 µm compared with 22 µm; cited from earlier work.

Turning to `C[C@]12CCC3=C4CCC(=O)C=C4CC[C@H]3[C@@H]1CC[C@@]2(O)CC#N` [Dienogest, 17α-Cyanomethyl-17-β-hydroxyestra-4,9-dien-3on], the “optimale Dosis für eine sichere Ovulationshemmung” value with Ovulationshemmung is 2 mg.

Regarding `C[C@H]1O[C@@H](O[C@H]2[C@@H](O)C[C@H](O[C@H]3[C@@H](O)C[C@H](O[C@H]4CC[C@@]5(C)[C@H](CC[C@@H]6[C@@H]5C[C@@H](O)[C@]5(C)[C@@H](C7=CC(=O)OC7)CC[C@]65O)C4)O[C@@H]3C)O[C@@H]2C)C[C@H](O)[C@@H]1O` [Digoxin], the Plasmaspiegel entry in data set [1] was “fast doppelt so hohe”.
